Reference: a melting point compilation (Tetko et al.; mined from patent text by program, amines drawn as free bases though some values may be those of a salt)

Structure (SMILES)	melting point [°C]
c1ccc2oc3cnnc-3cc2c1	215
OCc1cccc2nc(N3CCCCC3)sc12	107 to 108
CN1CCN(CCc2ccc(Nc3ncc4c(n3)-c3ccccc3C(c3ccccc3C(F)(F)F)C4)cc2)CC1 (stereo not given)	157 to 158
CC1(C)C=C(N2CCCS2(=O)=O)c2cc(S(C)(=O)=O)ccc2O1	226 to 227
Cc1ncc(C#N)c(Nc2cccc3[nH]ccc23)c1-c1cc2ccccc2o1	192 to 193
CCC12CCC3C4CCC(OC(C)=O)=CC4=CCC3C1CCC2OC(C)=O (stereo not given)	148 to 156
O=C(Nc1ccc2ccc(Oc3ccccc3)nc2n1)c1ccco1	167
CC1(C)CCC(C)(C)c2cc3oc(-c4ccc(CO)cc4)nc3cc21	200
COC(=O)c1nc(-c2ccc(Cl)c(OC)c2F)cc(N)c1OC	114 to 118
COc1cccc(NC(=O)NCC(=O)N(c2ccccc2)c2ccccc2)c1	182
COC(=O)c1c(Cl)cccc1S(N)(=O)=O	144 to 149
CC1CCCN(c2nc(S(C)(=O)=O)nc(Cl)c2-c2c(F)cc(F)cc2F)O1 (stereo not given)	160 to 162
Cc1cc2c(NCc3ccc4c(c3)OCO4)nc(Cl)nc2s1	162
CCn1ncc(C(=O)c2ccc(S(C)(=O)=O)c(C3=NOCC3)c2Cl)c1OCc1ccccc1	70 to 75
O=C(COc1cccc2cccnc12)c1ccc(Cl)cc1	111 to 112
COC(=O)c1ccc(OCC(C)NCC(O)c2ccc(O)c(CO)c2)cc1 (stereo not given)	60 to 68
CN(C)C(=O)CCC(=O)NC1CCC(CCN2CCN(c3nccc4c3OCC4)CC2)CC1 (stereo not given)	178
Cc1c(O)ccc2c1CCCC2=O	195 to 197
O=C(CCCCCOc1ccccc1OCc1ccccc1)C(F)(F)F	31 to 32
CCOC(=O)CCC(C#N)(c1ccc(C(F)(F)F)cc1)N1CCOCC1 (stereo not given)	96 to 97
O=[N+]([O-])c1ccc(Sc2cc(Br)nc(Br)c2)cc1	166 to 168
CN1CCN(C2=Nc3cc(C(F)(F)F)ccc3Nc3cscc32)CC1	202
CN1CCCCc2cc(-c3cnc(N)nc3N)ccc21	206 to 207
CNCCc1[nH]c2ccccc2c1-c1ccccc1	148 to 151
Cc1cc(SC2=C(O)CC(CCc3csc(CO)c3)(C(C)C)OC2=O)c(C(C)(C)C)cc1CO (stereo not given)	76 to 80

Structure (SMILES)	melting point [°C]
N#Cc1cc(Cl)c(NC(=O)NC(=O)c2c(F)cccc2F)cc1Cl	238 to 240
CCCN(Cc1cccc(C(=N)N)c1)C(=O)Nc1ccc(-c2ccccc2S(N)(=O)=O)cc1	166 to 167
Nc1nc2ccccc2c2c1nc(CCCOc1ccccc1)n2CCCCNC(=O)N1CCOCC1	71.5 to 72.1
CC(=O)NC[C@H]1CN(c2ccc(N3CCN(c4ccc(C=O)o4)CC3)c(F)c2)C(=O)O1	176
COC(=O)c1[nH]c2c(C)ccc(C)c2c1Cl	115 to 116
Nc1ccc(Oc2ccc(C(c3ccc(Oc4ccc(N)c(O)c4)cc3)(C(F)(F)F)C(F)(F)F)cc2)cc1O	178 to 181
CCCOc1cc2c(cc1C(C)c1ccc(OC)cc1)OCO2 (stereo not given)	84
CCCCCCCCCCCCCCCCCC(CCC(=O)O)[N+](=O)[O-] (stereo not given)	55 to 56
Cc1cc(NCCO)c2[nH]nc(-c3ccccc3)c2n1	135
COc1cccc2c1C(C)(C)C(=O)N2	143 to 144
NCCCCn1cnc2c(N)nc3cccnc3c21	161 to 163
CCOC(=O)NC(=N)NCCSCc1[nH]cnc1C	196 to 197
COc1ccc2nc(NC(=O)C(CC3CCCC3)c3ccc(S(=O)(=O)N(C)Cc4ccccc4)cc3)sc2n1 (stereo not given)	206 to 208
CC(=O)c1c(C)[nH]c(Cc2ccccc2)c1C	166 to 167
O=C(O)CCNC(=O)OCC(Cl)(Cl)Cl	89.4 to 91
CCOC(=O)c1ccc2nnc(-c3ncc([N+](=O)[O-])n3C)n2n1	180 to 182
Oc1c(C2CCCC2)cc(CSCc2cc(C3CCCC3)c(O)c(C3CCCC3)c2)cc1C1CCCC1	149 to 150
CCCn1c(=O)c2c(nc(/C=C/c3ccc(OC)c(O)c3)n2C)n(CCC)c1=O	200 to 204
COc1ccc(-c2cc3cc(F)c(F)cc3[nH]2)cc1NC(=S)Nc1cc(Cl)cc(Cl)c1	203 to 205
Cc1cc2nc(O)nc(O)c2s1	> 300
COc1nnc2n1C=Cc1cc(C)ccc1C2	148 to 149
CC1CN(c2ccc(Cl)cn2)N=C1N (stereo not given)	159 to 160
CCCn1cc(C(=O)NCc2ccc(Cl)cc2)c(=O)c2cc(CO)sc21	174 to 175
COc1ccc(S(=O)(=O)C2(C(=O)O)CCN(Cc3ccc(OCCN4CCCCC4)cc3)CC2)cc1	114
c1ccc(C2CN(CCCc3cccnc3)Cc3c2[nH]c2ccccc32)cc1 (stereo not given)	204 to 206

Structure (SMILES)	melting point [°C]
Cc1cnc2c(NC(=O)c3ccccc3[N+](=O)[O-])ccc(C)c2c1-n1ccnc1	231 to 233
COC(=O)C(CC(C)C)NCC(=O)n1c(=O)cc(-c2ccccc2)c2cc(C(c3ccc(Cl)cc3)n3ccnc3)ccc21 (stereo not given)	118
O=C(O)c1cn(-c2ccc(F)cc2)c2cc(N3CCNC(COc4ccccc4)C3)c(F)cc2c1=O (stereo not given)	204 to 207
O=C(O)C[C@H](NC(=O)OCc1ccccc1)C(=O)Nc1cc(Cc2n[nH]c(=O)c3ccccc23)ccc1F	188 to 190
O=C1c2c(O)cccc2C(c2cccs2)c2cccc(O)c21	181 to 182
COC(=O)[C@@H](CCSC)NC(=O)C[C@H]1O[C@H](c2cccc(OC)c2OC)c2cc(Cl)ccc2N(CC(C)(C)CO)C1=O	142 to 143
CC(C)(C)OC(=O)Nc1ccc(Br)cc1	101 to 103
CSC(=C(C#N)C#N)N1CCc2ccccc2CC1	129 to 132
COC(=O)CCc1sc(N)nc1-c1ccccc1	130 to 131
COc1ccc(/C=C/c2nc3cc([N+](=O)[O-])ccc3[nH]2)cc1OC	223 to 225
CC(=O)Nc1nc2ccc(S(=O)(=O)n3c(CCCC(=O)O)cc4cc(C(F)(F)F)ccc43)cc2s1	> 250
O=C(O)CC1(CCCCCCCCCCC2(C(=O)O)CC2)CC1	71.9 to 74.3
CN(CCOc1ccc(C(N)=O)cc1)CCc1ccc(N)cc1	110 to 112
O=C(O)CCN(O)CCC(=O)O	148 to 149
Nc1cccc2c1-c1nc3ccccc3cc1CC2	138 to 140
Cc1cc(S(=O)(=O)O)ccc1OCc1ccccc1C(=O)O	242 to 244
CC(=O)c1ccc(S(=O)(=O)NN2CCCCC2)cc1	137 to 139
COc1ccc(Cn2nc(-c3ccc(S(C)=O)cc3)c(-c3ccc(F)cc3)cc2=O)cc1 (stereo not given)	81.3 to 81.5
CCOC(=O)C1=C(Nc2ccccc2)CN(C(=O)c2ccccc2)C1	149 to 151
COC(C)CN(C)CC=CC(=O)Nc1cc2c(Nc3ccc(F)c(Cl)c3)ncnc2cc1OCC1CC1 (stereo not given)	123 to 125
CC(C)Oc1ccc(OCc2ccccc2)cc1-c1nc2ccc(CO)nc2[nH]1	167 to 168
CC(=O)NC1(c2ccc(CN3CCN(c4ccccc4)CC3)cc2)CC1	129 to 140
COc1ccnc(CCc2nc3cc(-c4ccncc4)cnc3[nH]2)c1	237 to 238
NC1=NN(c2ccc(C(=O)C(F)(F)F)cc2)C(c2ccccc2)C1 (stereo not given)	214 to 216
COc1c(C2CCN(CCCCNC(=O)c3ccc(-c4ccc(NS(C)(=O)=O)cc4)cc3)CC2)ccc2c1CCCC2	200 to 202

Structure (SMILES)	melting point [°C]
Cc1ccc(-n2ccc3c(Cl)nnc(Cl)c32)c(C)c1	148 to 149
Cc1ccc(S(=O)(=O)Nc2ccc(C(N)=O)cc2C(N)=O)cc1	212 to 215
CSCCCn1c(C)c(C(=O)c2cccc(Cl)c2Cl)c2cccc(Cl)c21	87
CCCC1(CCC)Oc2c(ccc(O)c2C(C)=O)-c2ccccc21	83 to 83.5
CNc1nc(SC)ncc1C=O	98 to 100
COc1ccc(C2(C#Cc3cccc(-c4nc(C)no4)c3)CCC(=O)CC2)cc1OC1CCCC1	88 to 91
CN(c1ccccc1)c1nc(Cl)c([N+](=O)[O-])s1	136 to 137
Cc1cc(-c2ccc(Cl)cc2)nc(-c2ccnc(-c3ccc(S(N)(=O)=O)s3)c2)n1	232
CC(C)=CCN1c2ccccc2NC(=O)C1C (racemic)	92 to 93
CCc1ccc2[nH]c(C(=O)OCc3ccccc3)cc2c1	99
O=C(N[C@@H](Cc1c[nH]c2ccccc12)C(=O)O)c1ccc(Br)cc1	162 to 163
CCCCCCCCCCCCc1nnn(C(CCCC)C(=O)Nc2c(OC)cc(OC)cc2OC)n1 (stereo not given)	152 to 154
O=S(=O)(c1ccc(Cl)cc1)C1(c2nnn(Cc3ccccc3)n2)CCCCC1	133 to 134
CNc1ccc(CCc2ccc(OCc3ccccc3)c(OCc3ccccc3)c2)cc1	61 to 65
COCCCn1c(O)nc2ccc(C(F)(F)F)cc21	83 to 84
COc1cc(CN2CCN(C)CC2C2=NCCN2)cc(OC)c1OC (stereo not given)	185 to 187
NC(=O)C(c1cccc(F)c1)N(C(=O)c1cccn2ccnc12)C(F)(F)F (stereo not given)	118 to 120
COC(=O)c1cc(S(N)(=O)=O)cc2c1OCCO2	225 to 226
Cc1ccc(-c2cccc(C(N)=O)c2)cc1	200 to 205
CN(C)c1ncc2c(=O)n(CCc3ccccn3)sc2n1	134 to 136
COc1cc(OC)nc(Oc2ccc3[nH]c(C)c(NC(C)=O)c3c2C(=O)O)n1	230 to 233
COc1cccc(/C=C/c2nc3c(c(=O)n(C)c(=O)n3C)n2C)c1OC	234 to 237
O=c1oc2c(ccc3ccccc32)c2c1CNCC2	227 to 230
Cc1cc2c(Br)ccc([N+](=O)[O-])c2cn1	146
CCCS(=O)(=O)c1cc([C@H]2C[C@H](c3cc(OC)c(OC)c(OC)c3)CO2)cc(OC)c1OCc1ccccc1 (relative stereo)	176 to 177
